17 compounds from patent US12612403B2, “Nitrogen-containing heterocyclic derivative inhibitor, and preparation method therefor and use thereof” (SHANGHAI HANSOH BIOMEDICAL CO., LTD., priority 2024, dated 2026) can be followed below.

Series [1] concerns PCSK9 secreted by HepG2 cells. Put plainly: Effect on the concentration of PCSK9 secreted by HepG2 cells (ELISA). As to conditions: Homo sapiens, 48 hours, PCSK9 in culture medium by ELISA. The format is cell-based. The method, then:
1. Experimental objective: To detect the inhibitory effect of the compounds on PCSK9.
2. Experimental method: • 1) HepG2 cell strain was cultured in the complete culture medium at 37° C., 5% CO2 to 70-90% confluence. • 2) The cells were digested and resuspended in the experimental culture medium, inoculated at 25,000 cells/well/200 μL in a 96-well cell culture plate, and cultured at 37° C. and 5% CO2 for 20-24 hours. • 3) The culture medium was removed from the cell culture plate, and the cell culture plate was washed once by adding 200 ul of the experimental culture medium to each well. • 4) Preparation of positive control compound and compound to be tested: the positive control compound and the compound to be tested were diluted on the compound plate. • 5) The diluted compound was added to the cell culture plate at 250 μL per well and incubated at 37° C. and 5% CO2 for 48 hours. • 6) The cell culture medium was collected at 200 μL per well and cryopreserved at −80° C. for later use. • 7) A sample of the cell culture medium was taken from the −80° C. cryopreservation condition, dissolved, vortexed, and centrifuged for later use. • 8) Preparation of standard curve: corresponding volumes of Dilution buffer were successively added to respective standard tubes, and in the order of the concentrations of 10, 5, 2.5, 1.25, 0.625, 0.313, 0.16, 0 ng/mL, the standard was diluted in series by taking the corresponding volume from the original tube or the last concentration tube. • 9) Preparation of washing liquid: 10x Wash buffer was diluted into 1x with Milli-Q for later use. • 10) According to the standard curve wells and sample wells set according to a plate map, 100 μL/well of the corresponding standards and culture medium samples were added to the wells, with 2 replicate wells. A self-adhesive seal was applied, the plate was placed on a plate shaker at room temperature, gently shaken, uniformly mixed, and incubated for 1 hour. • 11) The plate was placed on the plate washer, the washing liquid was set to 350 μL per well, and the plate was washed 4 times repeatedly. • 12) 100 μL/well of an HRP-conjugated detection antibody was added, a self-adhesive seal was applied, and the plate was placed on the plate shaker, well mixed uniformly, and incubated for 1 hour. • 13) The plate was placed on the plate washer, the washing liquid was set to 350 μL per well, and the plate was washed 4 times repeatedly. • 14) 100 μL/well of Substrate reagent was added, and the plate was placed in the dark, applied with a self-adhesive seal, placed on the plate shaker, well mixed uniformly, and incubated for 10-20 minutes. • 15) 100 μL of Stop solution (1N H2SO4) was added to each well and mixed uniformly. • 16) The optical density (OD) value in each well was measured in sequence at a wavelength of 450 nm by the microplate reader. Detection was carried out within 30 min after the reaction was stopped.
3. Experimental data processing method: After the OD values were read by the microplate reader, the OD value of the 0-concentration standard in the standard group was subtracted from the OD values of the standards, control group, and samples to obtain the actual OD values for these wells. A standard curve was plotted with Graphpad and the concentration of the sample was calculated. If the dilution was performed during the sample detection, the calculated sample concentration was necessarily multiplied by the corresponding dilution ratio in the final calculation, which was the actual concentration of the sample. Inhibition rate=(actual concentration in control−actual concentration in sample)/actual concentration in control*100. According to the inhibition rates corresponding to the different concentrations, IC50 was derived by Graphpad.

The nature of series [2]: Pharmacokinetic determination in mice (PO 5 mg/kg, IV 1 mg/kg). The format is in vivo, C57BL/6J mice. The conditions noted are these: male, C57BL/6J, mouse, plasma, C57 mice, PO administration, 5 mpk; for AUC(0-inf): read-out: Area under the curve AUC0-∞; for half-life: read-out: Half-life t1/2 (converted); for MRT: read-out: Mean residence time MRT; for Cmax: read-out: Plasma concentration Cmax; for Tmax: read-out: Time to peak tmax. The procedure:
1. Experimental objective: C57BL/6J mice were used as test animals to study the pharmacokinetic behavior of the compounds of the present disclosure in mice (plasma) after oral and intravenous administration.
2.2 Test animals: C57 mice, male, purchased from Shanghai Bk Lab Animal Co., Ltd., with animal production license number (SCXK (Shanghai) 2013-0006 N0.311620400001794).
2.3 Drug preparation: Preparation of oral drug: 10% Solutol HS15
10 g of Solutol HS15 solid was weighed, dissolved in 90 mL of pure water, uniformly mixed, stirred, and ultrasonically treated to form a clear solution. The compound of the present disclosure was weighed and dissolved in this solution, uniformly shaken, and ultrasonically treated for 15 minutes to obtain a colorless clear solution with a concentration of 0.5 mg/mL. Preparation of intravenous drug: 5% DMSO+10% Solutol HS15+85% PBS, the compound of the present disclosure was weighed, 5% DMSO was first added on the basis of the proportion relative to the total volume of administration, and the mixture was vortexed and ultrasonically treated for 2 min until it was completely dissolved; 10% of Solutol HS15 was then added, and the mixture was vortexed and ultrasonically treated for 2 min until it was completely dissolved; and finally, 85% of PBS was added, and the mixture was vortexed, ultrasonically treated for 5 min, and filtered through a 0.22 um filter membrane to obtain a colorless and transparent clear solution with a concentration of 0.2 mg/mL.
2.4 Administration: 3 male C57 mice were fasted overnight and then respectively administered PO at a dose of 5 mg/kg and a volume of 10 mL/kg. 3 male C57 mice were fasted overnight and then respectively administered IV at a dose of 1 mg/kg and a volume of 5 mL/kg.
2.5 Sample collection: Before and after administration of mice, 0.04 mL of blood was collected from the orbit at 0.083 (iv), 0.25, 0.5, 1, 2, 4, 8, and 24 hours, and placed in EDTA-K2 test tubes, which was centrifuged at 6000 rpm at 4° C. for 6 min to separate plasma which was stored at −80° C.; and the […] were fed 4 h after administration.
2.6 Determination results: The final determination results were obtained by using an LCMS/MS method.
3. Experimental results: The main pharmacokinetic parameters were calculated using WinNonlin 6.1.

In the next series the target is T1, PCSK9 protein (Homo sapiens, UniProt Q8NBP7).
T1 construct: purchased Sino biology (Sino Biological) 29698-H08H
T1 sequence (Q8NBP7 153-692): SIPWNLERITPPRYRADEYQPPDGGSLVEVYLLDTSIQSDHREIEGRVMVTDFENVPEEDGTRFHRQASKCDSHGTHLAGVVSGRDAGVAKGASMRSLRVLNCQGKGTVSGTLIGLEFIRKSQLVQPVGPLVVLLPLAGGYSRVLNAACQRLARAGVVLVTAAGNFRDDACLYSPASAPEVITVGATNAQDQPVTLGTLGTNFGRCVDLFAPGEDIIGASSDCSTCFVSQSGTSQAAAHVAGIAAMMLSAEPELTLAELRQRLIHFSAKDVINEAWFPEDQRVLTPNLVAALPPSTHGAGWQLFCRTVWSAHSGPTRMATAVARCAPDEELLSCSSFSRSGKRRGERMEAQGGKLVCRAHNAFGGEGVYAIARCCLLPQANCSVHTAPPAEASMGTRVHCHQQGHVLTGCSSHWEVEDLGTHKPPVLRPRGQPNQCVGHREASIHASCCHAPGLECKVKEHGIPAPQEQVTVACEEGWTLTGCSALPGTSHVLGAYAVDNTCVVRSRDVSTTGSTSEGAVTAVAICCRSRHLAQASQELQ
Put plainly: Binding ability to PCSK9 protein (HTRF). As to conditions: PCSK9-His, Alexa Fluor 647 probe compound. The method, then:
1. Experimental objective: To detect the action of compounds to bind PCSK9 protein by an HTRF method.
3. Experimental data processing method: Four-parameter log(inhibitor) vs. response—Variable slope (four parameters) in XLit was used to perform non-linear fitting of the compound concentration and the corresponding inhibition rate, and IC50 was calculated.
(In general: Time-resolved FRET reads energy transfer from a long-lived donor to a nearby acceptor.)

Structures are written as SMILES.

One may read the IC50 as the concentration needed to halve the response being measured. A high value points to weaker potency. For orientation: MRT means the average time that molecules of a dose stay in the body. The term Tmax denotes the time from dosing to the highest level. Take `N#Cc1cnc2c(c1)C(=O)N(c1ccc(N[C@H]3CC[C@H](Nc4nc5cc(C(F)(F)F)ccn5n4)C3)nc1)C2` [Example 65, 5-carbonyl-6-(6-(((1S,3S)-3-((7-(trifluoromethyl)-[1,2,4]triazolo[1,5-a]pyridin-2-yl)amino)cyclopentyl)amino)pyridin-3-yl)-6,7-dihydro-5H-pyrrolo[3,4-b]pyridine-3-carbonitrile]: 12800 nM corresponded to half-maximal inhibition in series [1] (IC50). Further, in series [2], the AUC(0-inf) came to 70000 ng·h/mL, the half-life is 4 h, the MRT came to 5.8 h and the Cmax was 7870 ng/mL. Moreover, in series [2], the Tmax was 4 h. The compound further showed an IC50 at PCSK9 protein of 13.9 nM.

For the compound `O=C1c2cc(F)ccc2CN1c1ccc(N[C@H]2CC[C@H](Nc3nc4cc(C(F)(F)F)ccn4n3)C2)nc1` [Example 83, 6-fluoro-2-(6-(((1S,3S)-3-((7-(trifluoromethyl)-[1,2,4]triazolo[1,5-a]pyridin-2-yl)amino)cyclopentyl)amino)pyridin-3-yl)isoindolin-1-one], the IC50 in series [1] worked out at 1100 nM; on PCSK9 protein, 11.5 nM.

On to `O=C1c2ccccc2CN1c1ccc(N[C@H]2CC[C@H](Nc3nc4cc(C(F)(F)F)ccn4n3)C2)nc1` [Example 84, 2-(6-(((1S,3S)-3-((7-(trifluoromethyl)-[1,2,4]triazolo[1,5-a]pyridin-2-yl)amino)cyclopentyl)amino)pyridin-3-yl)isoindolin-1-one], for which the IC50 was 4700 nM in series [1] and 6.3 nM on PCSK9 protein.

Consider `Cc1cc2c(cn1)C(=O)N(c1ccc(N[C@H]3CC[C@H](Nc4nc5cc(C(F)(F)F)ccn5n4)C3)nc1)C2` [Example 89, 6-methyl-2-(6-(((1S,3S)-3-((7-(trifluoromethyl)-[1,2,4]triazolo[1,5-a]pyridin-2-yl)amino)cyclopentyl)amino)pyridin-3-yl)-1,2-dihydro-3H-pyrrolo[3,4-c]pyridin-3-one], for which the IC50 in series [1] stood at 4000 nM. In addition, in series [2], the AUC(0-inf) amounted to 34300 ng·h/mL, the half-life was 2.7 h, the MRT was 3.1 h and the Cmax stood at 10300 ng/mL. Further, the Tmax in series [2] is 0.25 h. The IC50 on PCSK9 protein came to 10.5 nM.

For `Cc1ccc2c(n1)C(=O)N(c1ccc(N[C@H]3CC[C@H](Nc4nc5cc(C(F)(F)F)ccn5n4)C3)nc1)C2` [Example 91, 2-methyl-6-(6-(((1S,3S)-3-((7-(trifluoromethyl)-[1,2,4]triazolo[1,5-a]pyridin-2-yl)amino)cyclopentyl)amino)pyridin-3-yl)-5,6-dihydro-7H-pyrrolo[3,4-b]pyridin-7-one], the IC50 in series [1] stood at 12900 nM; on PCSK9 protein, 10.4 nM.

For `Cc1cnc2c(c1)CN(c1ccc(N[C@H]3CC[C@H](Nc4nc5cc(C(F)(F)F)ccn5n4)C3)nc1)C2=O` [Example 94], the IC50 in series [1] was 20500 nM; at PCSK9 protein, 9.5 nM.

Consider `Cc1cn(-c2ccc(N[C@H]3CC[C@H](Nc4nc5cc(C(F)(F)F)ccn5n4)C3)nc2)c(=O)nc1N` [Example 109], for which the IC50 in series [1] turned out to be 19600 nM; on PCSK9 protein it was 16.1 nM.

On to `Cc1cn(-c2ccc(N[C@H]3CC[C@H](Nc4nc5cc(C(F)(F)F)ccn5n4)C3)nc2)c(=O)nc1O` [Example 111], for which the IC50 in series [1] came out at 11200 nM; at PCSK9 protein, 16.2 nM.

Regarding `[2H]C1([2H])c2ncccc2C(=O)N1c1ccc(N[C@H]2CC[C@H](Nc3nc4cc(C(F)(F)F)ccn4n3)C2)nc1` [Example 114], in series [1], the IC50 amounted to 14700 nM. For the same compound, in series [2], the AUC(0-inf) was 7230 ng·h/mL, the half-life is 3.1 h, the MRT stood at 3 h and the Cmax is 2350 ng/mL. Further, the Tmax in series [2] was determined as 0.5 h. The compound further displayed an IC50 on PCSK9 protein of 8.9 nM.

In the case of `Cc1cnc2c(c1)C(=O)N(c1ccc(N[C@H]3CC[C@H](Nc4nc5cc(C(F)(F)F)ccn5n4)C3)nc1)C2` [Example 115], the IC50 is 2600 nM in series [1] and 9.9 nM at PCSK9 protein.

`O=C1c2cc(Cl)cnc2CN1c1ccc(N[C@H]2CC[C@H](Nc3nc4cc(C(F)(F)F)ccn4n3)C2)nc1` [Example 116]: the IC50 was 500 nM in series [1] and 16.4 nM at PCSK9 protein.

On to `O=C1c2ccc(Cl)cc2CN1c1ccc(N[C@H]2CC[C@H](Nc3nc4cc(C(F)(F)F)ccn4n3)C2)nc1` [Example 117], for which the IC50 is 400 nM in series [1] and 18.3 nM on PCSK9 protein.

For the compound `N#Cc1cnc2c(c1)C(=O)N(c1ccc(N[C@H]3CC[C@H](Nc4nc5cc(OC(F)F)ccn5n4)C3)nc1)C2` [Example 123], in series [1], half-maximal inhibition (IC50) required 5200 nM. Further, in series [2], the AUC(0-inf) worked out at 62200 ng·h/mL, the half-life was 2.4 h, the MRT came to 4.3 h and the Cmax was found to be 9920 ng/mL. In addition, in series [2], the Tmax was 2 h. In addition, the IC50 on PCSK9 protein was determined as 11.5 nM.

Regarding `N#Cc1ccc2c(n1)CN(c1ccc(N[C@H]3CC[C@H](Nc4nc5cc(OC(F)F)ccn5n4)C3)nc1)C2=O` [Example 132], in series [1], the IC50 came out at 6500 nM. In series [2], the AUC(0-inf) stood at 30600 ng·h/mL, the half-life is 2.9 h, the MRT was determined as 3 h and the Cmax came to 8570 ng/mL. In addition, the Tmax in series [2] came out at 0.5 h. On PCSK9 protein, this compound displayed an IC50 of 10 nM.

Turning to `N#Cc1cnc2c(c1)C(=O)N(c1cnc(N[C@H]3CC[C@H](Nc4nc5cc(C(F)(F)F)ccn5n4)C3)c(F)c1)C2` [Example 147], the IC50 in series [1] was 300 nM; on PCSK9 protein it was 8.8 nM.

With `N#Cc1cnc2c(c1)C(=O)N(c1cnc(N[C@H]3CC[C@H](Nc4nc5cc(OC(F)F)ccn5n4)C3)c(F)c1)C2` [Example 153], the IC50 in series [1] was 800 nM; at PCSK9 protein, 12.2 nM.

Take `N#Cc1ccnc2c1C(=O)N(c1ccc(N[C@H]3CC[C@H](Nc4nc5cc(C(F)(F)F)ccn5n4)C3)nc1)C2` [Example 163]: the IC50 was 10800 nM in series [1] and 6.3 nM at PCSK9 protein.
